According to PMC12828148, “Engineered cyclic peptide targeting ITGA5 disrupts tumor–stroma interaction to overcome desmoplasia and resistance in pancreatic ductal adenocarcinoma” (Acta Pharmaceutica Sinica. B, 2025):
Ends that are not written are not given here.

Experiments:
[1] = tested on: PANC-1 homospheroids / PANC-1 + PSC heterospheroids; test: 3D spheroid growth and ATP viability, PANC-1 model; format: cell-based; conditions: PANC-1 homo- and PANC-1 + PSC hetero-spheroids, treated Days 3 and 6, size Days 3, 6, 9, n = 20
Method: Homo-spheroids containing hPSCs, PANC-1, or MIA PaCa-2, and hetero-spheroids containing 1:1 combination of hPSCs and PANC-1/MIA PaCa-2 were generated in a 96-well round bottom plates precoated with 1% Pluronic F-127 (Sigma–Aldrich). The self-assembled spheroids were exposed to cyAV3.3, gemcitabine, or both after 3 days and 6 days. Before each treatment, images of spheroids were made using inverted microscope. The diameters of spheroids were measured digitally using ImageJ software. After 9 days, spheroids were moved from the wells to a fresh 96-well plate. CellTiter-Glo 3D reagent (Promega, WI, USA) was added to each well and the luminescence signal was measured after 30 min using Varioskan LUX bioluminescent reader (Thermo Scientific) to assess the viability.

[2] = tested on: PANC-1 + PSC and MIA PaCa-2 + PSC co-injection xenograft tumors; conditions: PANC-1 + PSC and MIA PaCa-2 + PSC co-injection xenografts, i.p. treatment, n = 4 per group per tumor type
Method: Six-week-old male CB17 SCID mice (Janvier Labs, Le Genest-Saint-Isle, France) were subcutaneously injected with a 2:1 mixture of 4 × 10^6 human PSCs and 2 × 10^6 PANC-1 or MIA PaCa-2 cells. Tumor growth was assessed twice a week. Tumor-bearing mice (±100 mm^3) were treated with phosphate buffered saline (PBS), cyAV3.3, gemcitabine, or combination of gemcitabine and cyAV3.3 intraperitoneally (i.p). Animals were euthanized, tumors and other organs were harvested and embedded in Cryomatrix (Thermo Scientific) before being snap frozen in cold 2-methyl butane (Thermo Scientific) and stored at −80 °C until analyses. […]
Immunohistochemical staining of mouse tumors
Tumors were cut into 7 μm thick sections and mounted on glass slides using Cryotome FSE (Thermo Scientific), dried, and fixed in acetone for 15 min. Tumor sections were rehydrated in PBS for 10 min then incubated with primary antibody diluted in PBS for 1 hour at RT. Antibodies […]
Next, slides were washed 3 times with PBS before incubation with secondary fluorescence-labeled antibody diluted in PBS. After 30 min of incubation, slides were washed with PBS and shielded with a DAPI -containing mounting medium. Images were made using a Hamamatsu NanoZoomer Digital slide scanner 2.0HT (Hamamatsu Photonics, New Jersey, […]

[3] = tested on: KPC (LSL-Kras^G12D/+; LSL-Trp53^R172H/+; Pdx1-Cre) PDAC tumors; test: Efficacy in genetically engineered KPC mouse PDAC model; format: in vivo, mice; conditions: isolated tumors, n = 6
Method: LSL-Kras^G12D/+; LSL-Trp53^R172H/+; Pdx1-Cre (KPC) mice were bred and maintained, on a mixed background, at the CRUK Scotland Institute. Mice were palpated until an abdominal tumor was detected (between 12 and 28 weeks of age) and were then imaged under anesthesia by 3D ultrasound imaging using the VisualSonics Vevo 3100 system with the MX550D transducer (FujiFilm). Following confirmation of PDAC of 3–6 mm, mice of both sexes were enrolled on treatment with cyAV3.3 25 mg/kg i.p. b.i.w. and gemcitabine (100 mg/kg i.p. b.i.w., n = 6). No mice were excluded from the study. Mice treated with gemcitabine alone were used as control group (n = 6). Follow-up imaging to monitor tumor volume was performed weekly until endpoint was reached (moderate symptoms: abdominal distension, loss of body conditioning, jaundice, hunching, or reduced movement). Upon post-mortem, gross pathology was examined and PDAC and organs harvested and fixed in 10% neutral buffered formalin prior to paraffin embedding and sectioning for histological and IHC analysis. Kaplan–Meier and Log-Rank analysis was used for statistical assessment of survival. Analysis of ultrasound images was performed by researchers blinded to treatment arm using VisualSonics VevoLab software (version 3.1.1). In 3D mode, stacked images of the tumor were imported, and tumor border annotated, allowing a 3D volume analysis.

hPSCs = test: Cell viability, Alamar blue assay; format: cell-based, human
Method: We investigated the inhibitory effect of both cyclic and linear peptides on PSC activation and signaling. To achieve this, PSCs were seeded and treated with TGF-β and peptides for 48 h (protein expression) or 24 h (gene expression). We also tested the effect of the peptide on the cell viability using Alamar blue assay and found no toxicity (Supporting Information Fig. S3A). […] To quantitate that, we performed Western blot analysis and confirmed the observed effect via immunostaining (Fig. 2B and C; Fig. S3B). The details of the antibodies used can be found in Supporting Information Table S2. […] After obtaining these effects, we focused on cyAV3.3 and examined its inhibitory effects on TGF-β1-stimulated PSCs using qPCR and an RT[2] profiler PCR array for ECM and adhesion receptors (Fig. 2D). […] The details of primers for all genes can be found in Supporting Information Table S3. […] In contrast, cyAV3.3 induced the gene expression of ECM-degrading proteins such as MMP10 and ADAMTS-13 (Supporting Information Fig. S4).

[4] = tested on: hPSC activated with TGF-β; test: Inhibition of TGF-β-induced PSC activation (immunocytochemical staining, Western blot); format: cell-based, human; conditions: 5 ng/mL TGF-β, 48 h, peptides at 20 and 50 μmol/L, immunostaining and Western blot
Method: secondary peroxidase labeled antibody was added and incubated for 1 h at RT. The HRP signal was developed using standard chemiluminescence kit and the signal was measured.
To evaluate the stability, 20 µmol/L peptide was incubated in 50% human plasma at biological temperature 37 °C for 1, 2, and 24 h. After incubation, plasma was precipitated by adding equal volume of 4% trichloroacetic acid (TCA) and rested on ice for 10 min. As control (or 0h), precipitation was performed immediately after mixing the peptide and plasma. Supernatant was collected after centrifugation at 13,300 × g and assessed using reversed phase high performance liquid chromatography (HPLC) with 5%, 95%, and 99.9% acetonitrile in de-gassed water with 0.1% trifluoroacetic acid as eluents. The remaining peptide was analyzed at a wavelength 280 nm.
Quantitative real-time PCR
To examine the effect of peptides on the gene expression of hPSC activation markers, cells were seeded into a 12 well plate at a seeding density of 50,000 cells/well. After overnight incubation, cells were starved for 24 h, then treated with human recombinant 5 ng/mL TGF-β (Peprotech, Hamburg, Germany) and […] peptide. After 24 h of the incubation, cells were lysed and total RNA was isolated using GenElute™ Mammalian Total RNA Miniprep Kit (Sigma–Aldrich) and the RNA concentration was measured using a NanoDrop® ND-1000 Spectrophotometer (Thermo Scientific, Waltham, USA). cDNA was synthesized with iScript™ cDNA Synthesis Kit (BioRad, Veenendaal, The Netherlands), and 10 ng cDNA was used for each PCR reaction. […] Quantitative real time PCR was performed with 2× SensiMix SYBR and Fluoroscein Kit (Bioline GmbH, Luckenwalde, Germany) using a BioRad CFX384 Real-Time PCR detection system (BioRad). […]
To evaluate the effect of peptides on the protein expression of hPSC activation markers, hPSCs were seeded into a 12 well plate at seeding density 50,000 cells/well. […] Proteins were detected with […]
medium. […] Images were analyzed using […]
secondary fluorescence-labeled antibody diluted in PBS. […]

TGF-β treated PSCs = test: Cell adhesion competition study (PSC attachment to FN-coated plate, crystal violet); format: cell-based, human; conditions: 50 μmol/L peptide, 30 min pre-incubation 37 °C, 1 h attachment, crystal violet absorbance 600 nm, n = 3
Method: To analyze the interaction of PSC and FN, a 96 suspension well plate was coated with 100 μL FN (Advanced Biomatrix, Carlsbad, CA, USA) at 1 μg/mL by overnight incubation at 4 °C. Next, the plate was washed with DPBS (Lonza) and blocked with 5% bovine serum albumin (BSA) in DPBS for at least 1 h at RT. In the meantime, a cell suspension of 200,000 cells/mL of TGF-β treated PSCs in DPBS with 2 mmol/L Ca^2+ and 2 mmol/L Mg^2+ was treated with 50 μmol/L AV3.3 or cyAV3.3 and incubated for 30 min at 37 °C. After washing the plate with DPBS, 100 μL cell suspension was added to each well and then set to rest for 1 h at RT. The plate was then washed with DPBS to remove unattached cells. […] Next, cells were stained with 0.1% (w/v) crystal violet (Sigma) in 25% methanol at RT. After 20 min, cells were washed with water and lysed with 0.5% (w/v) SDS. The degree of cell attachment was measured by the absorbance of the crystal violet at 600 nm using Tecan Infinite M200 plate reader (Tecan, Mannendorf, Switzerland). In other plate, cells were washed with DPBS after fixation and then stained with DAPI. Images were developed using EVOS fluorescence microscope (Thermo Scientific).

## Nc1ccn([C@@H]2O[C@H](CO)[C@@H](O)C2(F)F)c(=O)n1 [gemcitabine]
[1]
  spheroid growth: reduced the growth of both homo- and hetero-spheroids
[2]
  reduction of tumor size / tumor growth: 60%
[3]
  collagen deposition (Sirius red) in KPC tumors: significantly induced collagen deposition

## RYYRATY [AV3.3]
hPSCs
  effect on cell viability: no toxicity
[4]
  inhibition of PSC activation by TGF-β1 (expression of α-SMA and collagen-1): inhibited the activation of PSCs

## cyclo(GYYTRRAYK) [scr, scrambled cyclic peptide control, reference compound]
TGF-β treated PSCs
  blocking of the binding of PSC to FN: did not show any blocking
